PubChem BioAssay AID623861 (Sanford-Burnham Center for Chemical Genomics, 2012)
Calls of active or inactive are those of the source.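 How the source made its calls: active means compounds whose EC50 for boosting single-cell stem cell survival is at or below a set limit; inactive means the rest.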

tested on: human iPSC single-cell survival, ATP luminescence; test: human iPSC survival promotion after dissociation – cell-based, luminescence, dose response (AID 623861)

**Q.** With `Cc1cccc(Cc2c(C)nc3c(C(=O)NCc4ccco4)cnn3c2C)c1` as the molecule, how does the EC50 read?
**A.** > 80 µM (inactive)

**Q.** For `O=S(=O)(c1cccc2cnccc12)N1CCNCC1`, which EC50 is on record?
**A.** 2.89 µM

**Q.** `CCCc1ccc(C(=O)N2CCN(c3ccccc3OCC)CC2)cc1` was tested. Which EC50 did it give?
**A.** > 80 µM (inactive)

**Q.** `O=C(NCc1ccccc1)c1ccc(-c2cn[nH]c2)c2ccoc12` was tested. Which EC50 did it give?
**A.** 1.22 µM

**Q.** With `Cc1ccc(OCCN2CCN(c3nc(NCc4ccco4)c4ccccc4n3)CC2)cc1` as the molecule, how does the EC50 read?
**A.** 2.81 µM

**Q.** For `CC1(C)Cc2c(C#N)c(NCC3CCCO3)nc(-c3ccco3)c2CO1` (configuration not stated), which EC50 is on record?
**A.** 15.6 µM

**Q.** `Cc1ccc(S(=O)(=O)N[C@H](C(=O)OCC(=O)NC(=O)NCc2ccco2)C(C)C)cc1` was tested. Which EC50 did it give?
**A.** > 80 µM (inactive)

**Q.** For `CCCNC(=O)COC(=O)c1ccccc1C(=O)c1ccc(Cl)c([N+](=O)[O-])c1`, which EC50 is on record?
**A.** 47.1 µM (inactive)

**Q.** With `COC(=O)CCSc1cc([N+](=O)[O-])cc2c1c(C1OCCS1)nn2-c1ccccc1` (configuration not stated) as the molecule, how does the EC50 read?
**A.** 42.7 µM (inactive)

**Q.** With `CCOC(=O)C(=O)/C(=C\N(C)C)c1onc(-c2c(F)cccc2Cl)c1C(=O)OC` as the molecule, how does the EC50 read?
**A.** > 80 µM (inactive)

**Q.** Which EC50 does the source give for `COC(=O)c1[nH]c2ccccc2c1NC(=O)CCN1CCSCC1` here?
**A.** > 80 µM (inactive)

**Q.** With `Cc1cc(C)c2nc(N3CCN(C)CC3)c(C#N)cc2c1` as the molecule, how does the EC50 read?
**A.** > 80 µM (inactive)

**Q.** For `Cc1ccc(C(=O)OCc2cc(=O)n3ccsc3n2)s1`, which EC50 is on record?
**A.** > 80 µM (inactive)

**Q.** Which EC50 does the source give for `CCCOC(=O)C1NC(=O)N2C(C(=O)OCCC)C(C)(C)S[C@H]12` (some centres not stated) here?
**A.** > 80 µM (inactive)

**Q.** For `Cc1ccc(CN2CCN(Cc3cn(C)nc3C)CC2CCO)o1` (configuration not stated), which EC50 is on record?
**A.** > 80 µM (inactive)

**Q.** Which EC50 does the source give for `Cc1c(C(=O)OCC(=O)Nc2ccc(C(N)=O)cc2)cccc1[N+](=O)[O-]` here?
**A.** 60.8 µM (inactive)

**Q.** Which EC50 does the source give for `CCN1C/C(=C/c2cccc([N+](=O)[O-])c2)C(=O)/C(=C/c2cccc([N+](=O)[O-])c2)C1` here?
**A.** 9.01 µM

**Q.** How did the EC50 turn out when `COc1ccccc1CC(=O)Nc1ccc(-c2noc(COc3cccc(C)c3C)n2)cc1` was run?
**A.** > 80 µM (inactive)

**Q.** Which EC50 does the source give for `CC(OC(=O)c1ccc(S(=O)(=O)N2CCCCC2)cc1)C(=O)Nc1ccc(C(N)=O)cc1` (configuration not stated) here?
**A.** 8.72 µM

**Q.** `Cc1ccc(CCN2CC(C(=O)NCCCN3CCCCCC3)CC2=O)cc1` (configuration not stated) was tested. Which EC50 did it give?
**A.** > 80 µM (inactive)

**Q.** For `COc1cc(CC(CC(=O)O)CC(C)OCc2ccccc2)cc(OC)c1` (configuration not stated), which EC50 is on record?
**A.** > 80 µM (inactive)

**Q.** With `CC(=O)c1ccccc1NC(=O)COC(=O)CCCN1C(=O)c2cccc3cccc(c23)C1=O` as the molecule, how does the EC50 read?
**A.** > 80 µM (inactive)

**Q.** For `CC(Oc1ccccc1)C(=O)Nc1nc(-c2ccncc2)cs1` (configuration not stated), which EC50 is on record?
**A.** 37.8 µM (inactive)

**Q.** For `Cc1ccc(NC(=O)/C(=C\c2ccc([N+](=O)[O-])cc2)NC(=O)c2ccccc2)cc1`, which EC50 is on record?
**A.** > 80 µM (inactive)

**Q.** For `CC(C)(C)NC(=O)Cn1nnc(-c2ccccc2NC(=O)c2cnccn2)n1`, which EC50 is on record?
**A.** 10.8 µM

**Q.** For `C=C1C(C)C2C(Cc3ccccc3)NC(=O)C23C(OC(C)=O)C=CC(C)(O)CC(C)CC=CC3C1O` (configuration not stated), which EC50 is on record?
**A.** 0.448 µM

**Q.** Which EC50 does the source give for `CC(C)CC1Nc2ncnc(N3CCN(c4ccccc4)CC3)c2N(Cc2ccccc2)C1=O` (configuration not stated) here?
**A.** > 80 µM (inactive)

**Q.** For `O=C(Cc1ccc(Br)cc1)Nc1ccc2[nH]ncc2c1`, which EC50 is on record?
**A.** 25.2 µM (inactive)

**Q.** Which EC50 does the source give for `Cc1c(C(=O)NCc2ccccc2C(F)(F)F)sc(=O)n1Cc1ccc2ccccc2c1` here?
**A.** > 80 µM (inactive)

**Q.** With `CS(=O)(=O)Nc1ccc2c3c(cccc13)CC2` as the molecule, how does the EC50 read?
**A.** > 80 µM (inactive)

**Q.** For `CC1CNCCN1S(=O)(=O)c1cccc2cnccc12` (configuration not stated), which EC50 is on record?
**A.** > 80 µM (inactive)

**Q.** `Cn1nc(-c2ccccc2)c(C(O)c2ccccc2C(F)(F)F)c1Cl` (configuration not stated) was tested. Which EC50 did it give?
**A.** > 80 µM (inactive)

**Q.** `O=C(NC1CCCCC1)N(Cc1nc2ccccc2c(=O)[nH]1)C1CCCCC1` was tested. Which EC50 did it give?
**A.** > 80 µM (inactive)

**Q.** For `CCOC(=O)c1c(C)nc2sc3c(c2c1-c1ccc(OC)cc1)NC(c1ccccc1)NC3=O` (configuration not stated), which EC50 is on record?
**A.** > 80 µM (inactive)

**Q.** `O=C(Nc1ccncc1)c1ccccc1F` was tested. Which EC50 did it give?
**A.** 41 µM (inactive)

**Q.** With `COc1ccc2c(c1)c(=O)c(C(=O)c1ccc(Cl)cc1)cn2CC(=O)Nc1ccc(F)cc1` as the molecule, how does the EC50 read?
**A.** 15.6 µM

**Q.** Which EC50 does the source give for `C=C1C(=O)OC2C1CCC(C)=C1C(=O)C3OC3(C)C12` (configuration not stated) here?
**A.** > 80 µM (inactive)

**Q.** `Cc1c(Nc2cc(Cl)c3nonc3c2[N+](=O)[O-])c(=O)n(-c2ccccc2)n1C` was tested. Which EC50 did it give?
**A.** > 80 µM (inactive)

**Q.** How did the EC50 turn out when `CCCCCCC[C@@H](C/C=C/CCC(=O)N(C)C/C(=C/Cl)C/C(=C\C(=O)N1CC(OC)=CC1=O)OC)OC` was run?
**A.** 1.11 µM

**Q.** For `O=C(NCCCN1CCCCCC1)C1CC(=O)N(CCc2ccccc2)C1` (configuration not stated), which EC50 is on record?
**A.** > 80 µM (inactive)

**Q.** With `O=C(Nc1ccc(N2CCOCC2)cc1)c1cccc(S(=O)(=O)N2CCCC2)c1` as the molecule, how does the EC50 read?
**A.** > 80 µM (inactive)

**Q.** With `O=C(Nc1cccnc1Cl)c1cccnc1Cl` as the molecule, how does the EC50 read?
**A.** > 80 µM (inactive)

**Q.** For `CCC(C(=O)Nc1ccc2[nH]ncc2c1)c1ccccc1` (configuration not stated), which EC50 is on record?
**A.** 9.45 µM

**Q.** How did the EC50 turn out when `O=C(Nc1ccncc1)c1cc(S(=O)(=O)N2CCCC2)ccc1Cl` was run?
**A.** 20.5 µM (inactive)

**Q.** For `CN(CCOc1ccc(-c2ccn(S(=O)(=O)c3c(Cl)cccc3Cl)n2)cc1)c1ccccn1`, which EC50 is on record?
**A.** > 80 µM (inactive)

**Q.** `C[C@@H]1CCCCO[C@@H](CN(C)S(=O)(=O)c2cccs2)[C@@H](C)CN([C@H](C)CO)C(=O)c2cc(NS(=O)(=O)c3ccccc3)ccc2O1` was tested. Which EC50 did it give?
**A.** > 80 µM (inactive)

**Q.** `Cn1c(=O)cc(OCCCC(=O)Nc2cccc(Cl)c2)c2ccccc21` was tested. Which EC50 did it give?
**A.** > 80 µM (inactive)
